Laboratory results taken from article PMC9814530, “Rapid de novo discovery of peptidomimetic affinity reagents for human angiotensin converting enzyme 2” (Communications Chemistry, 2022).
“Also recorded” adds a separate entry of the source. Where a SMILES comes first, the peptide text is derived from it. [ ]: non-standard residue; d: D form. Phe(3,4-F2) = N[C@@H](Cc1ccc(F)c(F)c1)C(=O)O; Ala(4-thiazolyl) = N[C@@H](Cc1cscn1)C(=O)O; Phe(4-NH2) = Nc1ccc(C[C@H](N)C(=O)O)cc1; Met(O2) = CS(=O)(=O)CC[C@H](N)C(=O)O; Ala(cPr) = N[C@@H](CC1CC1)C(=O)O; Cha = N[C@@H](CC1CCCCC1)C(=O)O; β3hS = N[C@@H](CO)CC(=O)O; Orn = NCCC[C@H](N)C(=O)O

How the values were obtained:
ACE2 [1] = target: T1, ACE2 (Homo sapiens, UniProt Q9BYF1); assay: ELISA detection of ACE2 coated from 1 x PBS; format: binding; conditions: ACE2 in 1 x PBS 10 pM-100 nM coated; biotinylated peptide 100 nM; streptavidin-HRP, TMB, A450
Experimental: (§1) However, we observed a decreased detection sensitivity presumably due to the decreased amount of ACE2 being immobilized on the plate with many other serum proteins present. […] The plate was incubated with ABP N1 or control peptide, followed by streptavidin-HRP and TMB substrate. Absorbance was measured at 450 nm. The experiment was performed in technical triplicates (n = 3). Each data point, the mean signal as a bar, and error bars from experimental standard deviation, and statistical significance calculated with the unpaired Student’s t-test are shown. A serial dilution of soluble ACE2 was coated onto an ELISA plate (96-well format) overnight at 4 °C. The next day, the plate was blocked with 5% BSA in 1 × PBS supplement with 0.05% Tween-20 (PBST, pH 7.4) for 2–3 h at room temperature. […] Control groups are biotinylated peptide ABP N8 and PBST alone. The supernatant was then removed, and the wells were washed with PBST (3× 200 µL). Streptavidin-HRP conjugate in PBST (0.25 µg/mL, 100 µL) was added to each well and incubated for 30 min at room temperature. The plate was PBST-washed again (3 × 200 µL) before color development with 100 µL 1-Step™ Ultra TMB-ELISA Substrate Solution (Thermo Fisher, Catalog number 34028). After 10 min, the reaction was quenched with 2.0 M sulfuric acid (100 µL). Finally, the absorbance at 450 nm was measured on a microplate reader (BioTek) for all treated wells. […]

ACE2 [2] = target: T1, ACE2; assay: ELISA detection of ACE2 coated from a mixture with normal human serum; format: binding; conditions: plate coated with normal human serum and exogenous ACE2; biotinylated peptide 100 nM; streptavidin-HRP, TMB, A450
Experimental: as §1

ACE2 [3] = target: T1, ACE2; assay: Bio-layer interferometry (BLI) binding of immobilized biotinylated peptides to ACE2; conditions: 500 nM of ACE2
Experimental: (§2) Peptide binding validation was carried out using the ForteBio Octet RED96 system. The chamber temperature was kept constant at 30 °C with a plate agitation speed at 1000 rpm. Briefly, streptavidin (SA)-coated biosensor tips were dipped into 200 μL of 1.0–2.0 μM biotinylated peptide solution (in a kinetic buffer (K.B.): 1 × PBS with 0.1% BSA and 0.02% Tween-20) for peptides immobilization. Once loaded with peptides, the tips were then moved into solutions containing various concentrations (1000, 500, 250, 125, and 62.5 nM) of recombinant ACE2 protein (purchased from Sino Biological, Catalog number 10108-H08H) in the K.B. to obtain the association curve. After the 180 s association step, the tips were moved back into the K.B. to obtain the dissociation curve. Buffer-only and protein-only conditions (concentration at 1000 nM) were used as references for background subtraction. The association and dissociation curves were fitted with the ForteBio Biosystems Data Analysis Software under 5 experimental conditions (n = 5, global fitting algorithm, binding model 1:1) to calculate the apparent dissociation constant (KD).
Supplementary Note 4: Binding affinity measurements
4.1 BLI raw binding data of noncanonical peptides […]
affinity was reported using the kinetic fitting results ( KD is calculated by divide the […]
off rate by on rate). […] The ACE2
(§3) (1 picture or pasted object on this page, not shown here)
4.2 BLI raw binding data of canonical peptides
Supplementary Fig. 20. The BLI binding curve fitting (red lines) of ABP C1-C4 and ABP C7-C9 from Library 1 AS-MS against ACE2.
ACE2 concentration was 250 nM.

ACE2 [4] = target: T1, ACE2; assay: BLI binding competition of known ACE2 binders (AngII, MLN-4760) on the ABP-ACE2 interaction; parameters: Soluble ACE2 (5 µL, 0.62 mg/mL) was mixed with 50 µL normal human serum; conditions: immobilized biotinylated peptide
ACE2 [5] = target: T1, ACE2; assay: ACE2 pulldown from human serum (SDS-PAGE); format: binding; conditions: biotinylated peptide on streptavidin magnetic beads, ACE2 in 5% normal human serum, 1.0 h 4 °C, 6 M urea elution
Experimental: After removing the supernatant and washing off the unbound fraction, the bound material was eluted with a high concentration of urea and analyzed using the sodium dodecyl sulfate–polyacrylamide gel electrophoresis (SDS-PAGE). […] Bound ACE2 was eluted for subsequent analysis. b The SDS-PAGE image with samples showing from left to right lanes: (1) molecular weight standard; (2) purified ACE2 protein (1.5 µg) as a loading control; (3) normal human serum as a control; (4) normal human serum mixed with ACE2 (1.5 µg); (5) elution of the bound fraction from the magnetic beads. NHS, Normal Human Serum (5%). Following a previous protocol, streptavidin-coated magnetic beads (100 µL, at 10 mg/mL) were pre-washed with blocking buffer (1 × PBS with 0.05% Tween-20, pH 7.4) and captured on a magnetic separation rack. The beads were then re-suspended in 1.0 mL of the same blocking buffer. […] After 30 min of incubation at 4 °C, the supernatant was removed and the beads were washed with 1 × PBS (3 × 1.0 mL) before incubation with the protein mixture. Soluble ACE2 (5 µL, 0.62 mg/mL) was mixed with 50 µL normal human serum in 1 × PBS (pH 7.4) to a final volume of 1.0 mL. The magnetic beads displaying immobilized ABP N1 were then added into the protein complex. […]

12ca5 = assay: BLI binding to an unrelated (off-target) protein
Experimental: as §2, with “(KD). […]” for “(KD).”
4.4 The binding of ABP noncanonical peptides to an unrelated protein
N6, and N8 to an unrelated protein, 12ca5, measured by BLI at concentration
as §3

T1 sequence (Q9BYF1 18-740 limits assumed): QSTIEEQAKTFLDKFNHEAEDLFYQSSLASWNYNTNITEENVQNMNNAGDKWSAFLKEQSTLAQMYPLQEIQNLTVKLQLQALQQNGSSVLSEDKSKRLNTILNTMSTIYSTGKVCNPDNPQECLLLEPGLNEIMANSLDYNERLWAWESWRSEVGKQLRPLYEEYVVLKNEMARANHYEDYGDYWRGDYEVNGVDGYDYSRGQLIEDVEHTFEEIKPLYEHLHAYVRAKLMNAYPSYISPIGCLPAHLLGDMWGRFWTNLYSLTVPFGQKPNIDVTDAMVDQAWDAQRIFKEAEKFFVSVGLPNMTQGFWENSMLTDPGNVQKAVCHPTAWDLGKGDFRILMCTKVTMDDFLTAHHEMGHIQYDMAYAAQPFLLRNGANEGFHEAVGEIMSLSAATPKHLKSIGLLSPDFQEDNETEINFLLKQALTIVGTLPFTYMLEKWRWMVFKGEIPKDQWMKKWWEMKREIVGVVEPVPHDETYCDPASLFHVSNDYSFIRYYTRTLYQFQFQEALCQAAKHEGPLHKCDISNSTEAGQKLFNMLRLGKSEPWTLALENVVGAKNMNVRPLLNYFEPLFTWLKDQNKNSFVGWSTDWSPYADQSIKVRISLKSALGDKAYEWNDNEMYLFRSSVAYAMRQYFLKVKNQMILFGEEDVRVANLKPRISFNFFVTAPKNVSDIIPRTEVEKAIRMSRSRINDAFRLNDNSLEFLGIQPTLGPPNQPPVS

CS(=O)(=O)CC[C@H](NC(=O)[C@H](CC1CCCCC1)NC(=O)[C@H](Cc1cscn1)NC(=O)C[C@H](CO)NC(=O)[C@H](CCCN)NC(=O)[C@H](CCC(N)=O)NC(=O)[C@H](CCCN)NC(=O)[C@H](Cc1ccc(F)c(F)c1)NC(=O)[C@H](Cc1cscn1)NC(=O)[C@@H](N)CC1CC1)C(=O)NCC(=O)N[C@@H](Cc1ccc(N)cc1)C(=O)N[C@@H](CCCCN)C(N)=O [ABP N1] (H-[Ala(cPr)][Ala(4-thiazolyl)][Phe(3,4-F2)][Orn]Q[Orn][β3hS][Ala(4-thiazolyl)][Cha][Met(O2)]G[Phe(4-NH2)]K-NH2)
ELISA detection of ACE2 (in words) (ACE2 [1]): picomolar concentration of ACE2 was detected | ELISA detection of ACE2 in human serum (in words) (ACE2 [2]): dose-dependent ACE2 detection | BLI response signal (ACE2 [3]): ~ 1.3 nm | inhibition of ABP binding to ACE2 by AngII (ACE2 [4]; 500 nM ACE2 + 5 uM AngII (10-fold excess)): not inhibited | inhibition of ABP binding to ACE2 by MLN-4760 (ACE2 [4]; 500 nM ACE2 + 5 uM MLN-4760 (10-fold excess)): partially inhibited | pull-down of ACE2 from human serum (ACE2 [5]): selective enrichment of ACE2 protein | higher signal for ACE2 than for 12ca5 (12ca5; 500 nM ACE2 versus 500 nM 12ca5, BLI): ~ 5 fold | BLI response signal (12ca5; 500 nM of the off-target protein (12ca5)): 0.25 nm | binding to unrelated protein 12ca5 (in words) (12ca5; BLI, 12ca5 at 500 nM): minimal binding; also recorded: No apparent binding
